Assay: Hair treatment protocol: solvent pre-treatment before oxidative dyeing, colour strength K/S measured by spectrophotometer
Conditions: for K/.S vs. DI Water: switch soaked 5 minutes in neat solvent, then level 3 oxidative hair colorant (Nice n' Easy) 30 minutes at 30°C, dye uptake change vs. DI water

OCCOCCO [Diethyleneglycol]
K/.S vs. DI Water: -50%

OCC(O)CO [Glycerine]
K/S vs. DI Water (Glycerine Content 10 % wt. in deionised water as pre-treatment composition): -2%
K/S vs. DI Water (Glycerine Content 25 % wt. in deionised water as pre-treatment composition): -4%
K/S vs. DI Water (Glycerine Content 50 % wt. in deionised water as pre-treatment composition): -20%
K/S vs. DI Water (Glycerine Content 70 % wt. in deionised water as pre-treatment composition): -43%
K/.S vs. DI Water: -40%
